The IC50 is the midpoint of a concentration-inhibition curve. A word on the EC50: it is the concentration at which the effect is half-maximal. Lower therefore signals an effect from little substance.

Test [1] concerns the target T1, TGFβ R1 (Homo sapiens, UniProt P36897).
T1 sequence (P36897 34-503): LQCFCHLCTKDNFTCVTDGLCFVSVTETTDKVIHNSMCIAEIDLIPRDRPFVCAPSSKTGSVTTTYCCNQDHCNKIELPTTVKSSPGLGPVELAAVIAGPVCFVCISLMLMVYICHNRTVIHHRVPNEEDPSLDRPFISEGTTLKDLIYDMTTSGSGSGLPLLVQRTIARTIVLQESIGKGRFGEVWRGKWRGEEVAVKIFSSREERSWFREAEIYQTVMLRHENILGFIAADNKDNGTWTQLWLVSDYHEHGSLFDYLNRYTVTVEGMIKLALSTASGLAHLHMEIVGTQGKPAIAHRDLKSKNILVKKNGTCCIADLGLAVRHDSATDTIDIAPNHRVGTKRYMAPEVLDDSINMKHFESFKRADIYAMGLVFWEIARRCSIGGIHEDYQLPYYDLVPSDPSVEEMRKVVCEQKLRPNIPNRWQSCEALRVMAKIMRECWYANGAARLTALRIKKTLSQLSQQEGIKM
Briefly: TGFβ R1 autophosphorylation protocol. The class given is biochemical. To be noted: 10 uM ATP, 170 nM TGFβ R1, 20 minutes at room temperature; read-out: IC50 for Kinase Inhibition. The protocol: The compounds of the invention were tested for their ability to inhibit TGFβ by a TGFβ R^1 autophosphorylation protocol. This was conducted as follows: Compound dilutions and reagents were prepared fresh daily. Compounds were diluted from DMSO stock solutions to 2 times the desired assay concentration, keeping final DMSO concentration in the assay less than or equal to 1%. TGFβ R1 was diluted to 4 times the desired assay concentration in buffer+DTT. ATP was diluted into 4× reaction buffer, and gamma-^33P-ATP was added at 60 uCi/mL.
The assay was performed by adding 10 ul of the enzyme to 20 ul of the compound solution. The reaction was initiated by the addition of 10 ul of ATP mix. Final assay conditions included 10 uM ATP, 170 nM TGFβ R1, and […] in 20 mM MOPS, pH7. The reactions were incubated at room temperature for 20 minutes. The reactions were stopped by transferring 23 ul of reaction mixture onto a phosphocellulose 96-well filter plate, which had been pre-wetted with 15 ul of 0.25M H3PO4 per well. After 5 minutes, the wells were washed 4× with 75 mM H3PO4 and once with 95% ethanol. The plate was dried, scintillation cocktail was added to each well, and the wells were counted in a Packard TopCount microplate scintillation counter.

Test [2] deals with HCV replicons (HCV type 1b NS3-NS5B) in Huh-Luc cells. Briefly: HCV replicon assay (Huh-7 luc/neo, luciferase reporter). In kind it is cell-based. To be noted: Hepatitis C virus, Huh-7, 72 h, incubation of three days, luciferase activity. The text has this:
The pyrido[2,3-d]pyrimidine compounds of the present invention were examined for activity in the inhibition of HCV RNA replication in a cellular assay. […] The cellular assay was based on a bicistronic expression construct, as described by Lohmann et al. (1999) Science vol. 285 pp. 110-113 with modifications described by Krieger et al. (2001) Journal of Virology 75: 4614-4624, in a multi-target screening strategy. In essence, the method was as follows.
The assay utilized the stably transfected cell line Huh-7 luc/neo (hereafter referred to as Huh-Luc). […]
The replicon cells were plated in 384-well plates in the presence of the test and control compounds which were added in various concentrations. Following an incubation of three days, HCV replication was measured by assaying luciferase activity (using standard luciferase assay substrates and reagents and a Perkin Elmer ViewLux™, ultraHTS microplate imager). […] The inhibitory activity of the compound on luciferase activity was monitored on the Huh-Luc cells, enabling a dose-response curve for each test compound. […]
The replicon cells are plated in 384 well plates in the presence of the test and control compounds which are added in various concentrations. […] The inhibitory activity of the compound on luciferase activity is monitored on the Huh-Luc cells, enabling a dose-response curve for each test compound.
For orientation: A replicon is a self-replicating genome or part of one, used to study replication in cells.

Molecules are shown by their SMILES.

In the case of `NC(=O)c1cnccc1Nc1nc(-c2cc(Cl)ccc2F)nc2ncccc12` [Compound 1], the IC50 in test [1] was determined as 20 nM. This compound also registered an EC50 in test [2] of 0.76 µM.

On to `CNC(=O)c1cnccc1Nc1nc(-c2cc(Cl)ccc2F)nc2ncccc12` [Compound 2], for which the IC50 in test [1] worked out at 70 nM. In addition, in test [2], the EC50 amounted to 11.9 µM.

Regarding `CNC(=O)c1cnccc1Nc1nc(-c2cc(Cl)ccc2NC)nc2ncccc12` [Compound 3], in test [1], the IC50 was 1600 nM.

On to `CNC(=O)c1cnccc1Nc1nc(-c2cc(Cl)ccc2F)nc2nc(N)ccc12` [Compound 4], for which the IC50 in test [1] was determined as 30 nM.

On to `CNC(=O)c1cnccc1Nc1nc(-c2cc(Cl)ccc2F)nc2nc(NCCN(C)C)ccc12` [Compound 5], for which, in test [1], the IC50 was found to be 6040 nM.

On to `CC(O)CNC(=O)c1cnccc1Nc1nc(-c2cc(Cl)ccc2F)nc2nc(NCCN(C)C)ccc12` (stereo not shown) [Compound 6], for which the IC50 in test [1] is 12200 nM.

`CNC(=O)c1cnccc1Nc1nc(-c2cc(Cl)ccc2F)nc2nc(NCCOC)ccc12` [Compound 7]: the IC50 in test [1] was 980 nM.

On to `COc1ccc(CNc2ccc3c(Nc4ccncc4C(=O)NC4CC4)nc(-c4cc(Cl)ccc4F)nc3n2)cc1` [Compound 8], for which the IC50 in test [1] was determined as 1400 nM.

For the compound `Nc1ccc2c(Nc3ccncc3C(=O)NC3CC3)nc(-c3cc(Cl)ccc3F)nc2n1` [Compound 9], the IC50 in test [1] amounted to 2700 nM.

Consider `C[C@H](O)CNC(=O)c1cnccc1Nc1nc(-c2cc(Cl)ccc2F)nc2nc(N)ccc12` [Compound 10], for which the IC50 in test [1] was found to be 5010 nM.

Consider `COC(=O)c1cnccc1Nc1nc(-c2cc(Cl)ccc2F)nc2ncccc12` [Compound 11], for which the IC50 in test [1] was 1370 nM.

With `O=C(O)c1cnccc1Nc1nc(-c2cc(Cl)ccc2F)nc2ncccc12` [Compound 12], the IC50 in test [1] is 230 nM.

As to `CCOC(=O)c1cnccc1Nc1nc(-c2cc(Cl)ccc2F)nc2ncccc12` [Compound 13], in test [1], the IC50 was 530 nM.

For `CN(Cc1ccccc1)c1ccc2c(Nc3ccncc3C(=O)O)nc(-c3cc(Cl)ccc3F)nc2n1` [Compound 14], the IC50 in test [1] amounted to 225 nM.

As to `COc1ccc(CN(Cc2ccc(OC)cc2)c2ccc3c(Nc4ccncc4C(=O)O)nc(-c4cc(Cl)ccc4F)nc3n2)cc1` [Compound 15], the IC50 in test [1] turned out to be 569 nM.

Take `COC(=O)c1cnccc1Nc1nc(-c2cc(Cl)ccc2F)nc2nc(N(Cc3ccc(OC)cc3)Cc3ccc(OC)cc3)ccc12` [Compound 16]: in test [1], the IC50 was determined as 745 nM.

As to `COc1ccc(CNc2ccc3c(Nc4ccncc4C(=O)NCCCN4CCOCC4)nc(-c4cc(Cl)ccc4F)nc3n2)cc1` [Compound 18], the IC50 in test [1] turned out to be 990 nM.

The values are drawn from US20070066632A1, “Fused bicyclic inhibitors of TGFbeta” (Scios, Inc., priority 2005, published 2007).
